US20250195504A1, “NALTREXAMINE DERIVATIVES BEARING 5-MEMBER HETEROCYCLIC RING SYSTEMS AND OPIOID RECEPTOR MODULATORS” (VIRGINIA COMMONWEALTH UNIVERSITY, priority 2022, published 2025)
Counter-ions that a name gives are not always drawn.

Experiments:
Na channel = test: side effect profiling, Na channel; format: binding
KOR = KOR (Mus musculus, UniProt P33534); test: competitive radioligand binding assay, KOR ([3H]diprenorphine, CHO cell membranes); parameters: expressed in transfected cells; host or cells: CHO; details: Tables A, B; read-out: Binding Affinity Ki (nM) ± SEM, KOR

SMILES | Ki (Na channel) | Na channel binding (Na channel; at 10 uM) | Ki (KOR)
O=C(N[C@H]1CC[C@@]2(O)[C@H]3Cc4ccc(O)c5c4[C@@]2(CCN3CC2CC2)[C@H]1O5)c1cccs1 [Example 1 compound 25, 17-Cyclopropylmethyl-3,14β-dihydroxy-4,5α-epoxy-6α-(2′-thienylcarboxamido)morphinan hydrochloride] | 9.9 µM | 55% | 
O=C(N[C@H]1CC[C@@]2(O)[C@H]3Cc4ccc(O)c5c4[C@@]2(CCN3CC2CC2)[C@H]1O5)c1nccs1 [NTZ, 17-Cyclopropylmethyl-3,14β-dihydroxy-4,5α-epoxy-6α-(2′-thiazolylcarboxamido)morphinan hydrochloride] |  |  | 1.3 ± 0.12 nM
